Laboratory results: patent publication US20140221301A1, “COMBINATION TREATMENT FOR CANCER” (priority 2011, published 2014)

Assays:
TEX cells = assay: Chemical screen, MTS assay, TEX cells; type: cell-based, human; conditions: 10 μM, 72 hours
Excerpt: To identify compounds active against leukemia stem cells, a library of drugs (n=312) with well-characterized pharmacokinetics and toxicology and a wide therapeutic window was compiled. This library was then screened to identify agents that reduced the viability of TEX and M9-ENL1 cells. TEX and M9-ENL1 cells were derived from lineage-depleted human cord blood cells (Lin-CB) transduced with TLS-ERG or MLL-ENL oncogenes, respectively, and, as shown previously, display properties of stem cells including hierarchal differentiation and marrow repopulation^14, 15. In this screen, TEX and M9-ENL1 cells were treated with aliquots of the compounds. After incubation, cell growth and viability was measured by the MTS assay. From this screen, tigecycline was identified.
TEX, and M9-ENL-1 cells were seeded into 96-well polystyrene tissue culture plates (Corning). […] 72 (TEX) and 48 (M9-ENL-1) hours after incubation, cell growth and viability was measured by MTS assay. […]
Cell growth and viability was assessed by the MTS assay (Promega, Madison, Wis.) according to the manufacturer's instructions. Apoptosis and cell death was measured by Annexin V-fluroscein isothiocyanate (FITC; Biovision Research Products, Mountain View, Calif.), propidium iodide staining and flow cytometry according to the manufacturer's instructions and as previously described^30. […]

Complexes I and IV = assay: Respiratory chain enzyme activity relative to citrate synthase, Complexes I and IV; type: cell-based, human; conditions: TEX cells, 2.5 μM and 5 μM, 72 hours
Experimental: FIG. 4. Tigecycline decreases mitochondrial Cox-1 protein levels in TEX cells. (A) Cells from TEX, OCI-AML2 and two primary AML patients were treated with increasing concentrations (2.5 μM and 5 μM) of tigecycline for 36 and 48 hours of tigecycline. Total proteins were extracted and analyzed by western blotting for Cox-1, Cox-2, Cox-4, grp78, XIAP, actin and tubulin. (B) TEX and AML patient cells were treated with increasing concentrations (2.5 μM and 5 μM) of tigecycline. Cox-1, Cox-2, and Cox-4 mRNA expression relative 18S was determined by quantitative RT-PCR. Data is shown as mean±SD. (C) TEX cells were treated with increasing concentrations of tigecycline and chloramphenicol (CAP) for 72 hours. Complex I, II and IV enzyme activity relative to citrate synthase activity was determined as described in materials and methods. […] Mitochondrial membrane potential (ΔΨ) was determined by staining cells with JC-1 dye, and flow cytometry analysis (Red/Green ratio). Reactive oxygen species generation (ROS) was determined by staining with h2-DCFDA and Dihydroethidium (DHE).
The effect of tigecycline treatment on enzyme activity of the respiratory chain complexes relative to the mitochondrial non-respiratory chain enzyme citrate synthase was examined. TEX leukemia cells were treated with tigecycline for […] and then respiratory chain enzyme relative to citrate synthase activity was analyzed. […]

primary human AML cells = type: in vivo, NOD-SCID mice
Experimental: FIG. 3. Tigecycline has anti-leukemia activity in vivo. (A, B) Human leukemia cells (OCI-AML2) were injected subcutaneously into the flank of SCID mice. Seven days after injection, once tumors were palpable, mice were treated with tigecycline (50 mg/kg or 100 mg/kg twice daily by i.p. injection) or vehicle control (n=10 per group). Fourteen days after injection of cells, mice were sacrificed, tumors excised and the volume and mass of the tumors were measured. The tumor mass and the mean volume+SD are shown. Differences in tumor volume and mass were analyzed by an unpaired t-test: *p<0.001. (C) Tumours from two control mice, and three tigecycline-treated mice were excised after 5 days of treatment and total proteins were extracted and analyzed by western blotting for Cox-1, Cox-2, Cox-4, and tubulin. […] Following treatment, human leukemia cell engraftment in the injected right femur was measured by FACS analysis for human CD45^+CD19^−CD33^+ cells. […] Six weeks later, human leukemia cell engraftment in the injected right femur was measured by FACS analysis for human CD45^+CD19^−CD33^+cells. […]
To assess tigecycline in mouse models of primary AML, primary human AML cells were isolated form a fresh peripheral blood sample from a patient with AML. A frozen aliquot was thawed, counted and resuspended in PBS. […]

## CN(C)c1cc(NC(=O)CNC(C)(C)C)c(O)c2c1C[C@H]1C[C@H]3[C@H](N(C)C)C(O)=C(C(N)=O)C(=O)[C@@]3(O)C(O)=C1C2=O [tigecycline]
TEX cells
  cell growth and viability in screen: cell growth inhibitor
Complexes I and IV
  enzyme activities of Complexes I and IV relative to citrate synthase: decreased
Primary human AML cells; 100 mg/kg i.p. daily for three weeks
  engraftment of human AML primary cells (CD45+CD33+CD19-): significantly decreased
Primary human AML cells; mouse, in vivo
  toxicity in treated mice: without gross organ toxicity or loss of body weight
